Results: patent publication US20010000177A1, “Novel class of thiomorpholino substituted thiazoles” (priority 1999, published 2001)
≈ marks a conversion by molar mass, not a printed value. Marks after values point to notes of the source that are not given here.

Assays:
Type in all cases: cell-based
[1] = tested on: Candida and Cryptococcus strains (organism not given); assay: Broth microdilution antifungal activity, Table II third MIC/MCC column pair; settings: for MCC = Minimum cytolytic concentration: subculture on SDA plate; for MIC = Minimum inhibitory concentration (50% Inhibition): 48 hrs, 35° C., YNB broth pH 7.0
Procedure: (§1) Organisms: Three strains of Candida (Candida parpsilosis, Candida tropicalis, Candida albicans-ATCC 36082) as well as Cryptococcus neoformans were used for the initial testing. Active compounds were then tested against fluconazole resistant Candida albicans, Candida krusei, Torulopsis glabrata, and Cryptococcus neoformans along with Sporothrix shenkii and Aspergillus flavus in the secondary round of testing. All clinical strains used in this study were blood culture isolates from the Clinical Microbiology Laboratory of Harbor-UCLA Medical Center, Torrance, Calif. The organisms were maintained on Sabourahd Dextrose Agar slants at 4° C. For experimentation, singlet suspensions of each organism were prepared by growing the yeast overnight at 27° C. on a rotating drum in yeast-nitrogen base broth (YNB) with amino acids (Difco, Detroit, Mich.), pH 7.0 with 0.05M morpholinepropanesulfonic acid (MOPS). The suspension was then centrifuged and washed twice with 0.85% NaCl. This was followed by sonication of the washed cell suspension for 4s (Branson Sonifier, model 350, Danbury, Conn.). The singlet blastospores were counted in a hemocytometer and adjusted to the desired concentration in 0.85% NaCl.
(§2) Antifungal Activity: The antifungal activity of the compounds and Fluconazole against the Candida and Cryptococcus strains were determined using a modification of a broth microdilution technique. Test compounds were diluted in DMSO to a 1.0 mg/ml ratio then diluted to 64 μg/ml in YNB broth, pH 7.0 with MOPS (Fluconazole was used as the control). This was to provide a working solution of each compound. Using a 96-well plate, wells 1 and 3 through 12 were prepared with YNB broth, […] dilutions of the compound solution were made in wells 2 through 11 (concentration ranges were 64 to 0.125 μg/ml). Well one served as a sterility control and blank for the spectrophotometric assays. Well twelve served as a growth control. The microtiter plates were inoculated with 10 ul in each of well 2 through 11 (final inoculum size was 10^4 organisms/ml). Inoculated plates were incubated for 48 hrs., at 35° C. The MIC values were determined spectrophotometrically by measuring the absorbance at 420 nm (Automatic Microplate Reader, DuPont Instruments, Wilmington, Del.) after agitation of the plates for 2 min with a vortex-mixer (Vorte-Genie 2 Mixer, Scientific Industries, Inc., Bolemia, N.Y.). […] With the turbidity assay this was defined as the lowest drug concentration at which turbidity in the well was <50% of the control (IC50) Minimal Cytolytic Concentrations (MCC) were determined by subculturing all wells from the 96-well plate onto a Sabourahd Dextrose Agar (SDA) plate and incubated for 1 to 2 days at 35° C. and the viability was checked.

[2] = tested on: Candida and Cryptococcus strains (organism not given); assay: Broth microdilution antifungal activity, Table II first MIC/MCC column pair; settings: for MIC = Minimum inhibitory concentration (50% Inhibition) / MCC = Minimum cytolytic concentration: first column pair of Table II; for MIC = Minimum inhibitory concentration (50% Inhibition): YNB broth pH 7.0; for MCC = Minimum cytolytic concentration: subculture on SDA plate
Procedure: as §1, with “Active compounds were then tested against fluconazole resistant Candida albicans, Candida krusei, Torulopsis glabrata, and Cryptococcus neoformans along with Sporothrix shenkii and Aspergillus flavus in the secondary round of testing.” left out
as §2

[3] = tested on: Candida and Cryptococcus strains (organism not given); assay: Broth microdilution antifungal activity, Table II fourth MIC/MCC column pair; settings: for MIC = Minimum inhibitory concentration (50% Inhibition) / MCC = Minimum cytolytic concentration: fourth column pair of Table II; for MIC = Minimum inhibitory concentration (50% Inhibition): YNB broth pH 7.0; for MCC = Minimum cytolytic concentration: subculture on SDA plate
Procedure: as §1, with “Active compounds were then tested against fluconazole resistant Candida albicans, Candida krusei, Torulopsis glabrata, and Cryptococcus neoformans along with Sporothrix shenkii and Aspergillus flavus in the secondary round of testing.” left out
as §2

[4] = tested on: Candida and Cryptococcus strains (organism not given); assay: Broth microdilution antifungal activity, Table II second MIC/MCC column pair; settings: for MIC = Minimum inhibitory concentration (50% Inhibition) / MCC = Minimum cytolytic concentration: second column pair of Table II; for MIC = Minimum inhibitory concentration (50% Inhibition): YNB broth pH 7.0; for MCC = Minimum cytolytic concentration: subculture on SDA plate
Procedure: as §1, §2

| MIC ([2]; Candida, 48 h, pH 7, first column pair of Table II, 48 hrs, 35° C., YNB broth pH 7.0, read-out: MIC = Minimum inhibitory concentration (50% Inhibition)) [µg/mL] | MIC = Minimum inhibitory concentration (50% Inhibition) ([2]; 48 hrs, 35° C.) | MIC ([3]; Candida, 48 h, pH 7, fourth column pair of Table II, 48 hrs, 35° C., YNB broth pH 7.0, read-out: MIC = Minimum inhibitory concentration (50% Inhibition)) [µg/mL] | MIC = Minimum inhibitory concentration (50% Inhibition) ([3]; 48 hrs, 35° C.) [µg/mL] | MIC ([4]; Candida, 48 h, pH 7, second column pair of Table II, 48 hrs, 35° C., YNB broth pH 7.0, read-out: MIC = Minimum inhibitory concentration (50% Inhibition)) [µg/mL] | MIC = Minimum inhibitory concentration (50% Inhibition) ([4]; 48 hrs, 35° C.) [µg/mL] | MIC = Minimum inhibitory concentration (50% Inhibition) [1] [µg/mL] | SMILES | MCC = Minimum cytolytic concentration [1] [µg/mL] | MCC = Minimum cytolytic concentration [2] [µg/mL] | MCC = Minimum cytolytic concentration [3] [µg/mL] | MCC = Minimum cytolytic concentration [4] [µg/mL] |
| --- | --- | --- | --- | --- | --- | --- | --- | --- | --- | --- | --- |
| – | 1 µg/mL (≈ 2.62 µM) | – | 1 (≈ 2.62 µM) | – | 1 (≈ 2.62 µM) | 2 (≈ 5.24 µM) | CCCN(C)Cc1ccc(-c2csc(-c3ccc(C)c([N+](=O)[O-])c3)n2)cc1 [Example 6p, 2-(4′-methyl-3′-nitrophenyl)-4-[4″-(N-methyl-N-propylaminomethyl)-phenyl]thiazole] | 16 | 8 | 4 | 4 |
| – | 8 µg/mL (≈ 17.8 µM) | – | 4 (≈ 8.92 µM) | – | 4 (≈ 8.92 µM) | 8 (≈ 17.8 µM) | CCCN(C)Cc1ccc(-c2csc(-c3ccc(I)cc3)n2)cc1 [Example 6g, 2-(4′-iodophenyl)-4-[4″-(N-methyl-N-propylaminomethyl)phenyl]-thiazole] | 4 | 4 | 4 | 2 |
| – | 2 µg/mL (≈ 6.26 µM) | – | 8 (≈ 25 µM) | – | 2 (≈ 6.26 µM) | 2 (≈ 6.26 µM) | CN(C)Cc1ccc(-c2csc(-c3cccc(C#N)c3)n2)cc1 [Example 6o, 2-(3′-cyanophenyl)-4-[4″-(dimethylaminomethyl)phenyl]thiazole] | >64 | 4 | 16 | 8 |
| – | 4 µg/mL (≈ 11.5 µM) | – | 0.5 (≈ 1.44 µM) | – | 2 (≈ 5.76 µM) | 2 (≈ 5.76 µM) | CCCN(C)Cc1ccc(-c2csc(-c3ccc(C#N)cc3)n2)cc1 [Example 6e, 2-(4′-cyanophenyl)-4-[4″-(N-methyl-N-propylaminomethyl)phenyl]-thiazole] | 16 | 4 | 1 | 4 |

More lines, now with the values behind:

| SMILES | MIC ([2]; Candida, 48 h, pH 7, first column pair of Table II, 48 hrs, 35° C., YNB broth pH 7.0, read-out: MIC = Minimum inhibitory concentration (50% Inhibition)) [µg/mL] | MIC = Minimum inhibitory concentration (50% Inhibition) ([2]; 48 hrs, 35° C.) | MIC ([3]; Candida, 48 h, pH 7, fourth column pair of Table II, 48 hrs, 35° C., YNB broth pH 7.0, read-out: MIC = Minimum inhibitory concentration (50% Inhibition)) [µg/mL] | MIC = Minimum inhibitory concentration (50% Inhibition) ([3]; 48 hrs, 35° C.) [µg/mL] | MIC ([4]; Candida, 48 h, pH 7, second column pair of Table II, 48 hrs, 35° C., YNB broth pH 7.0, read-out: MIC = Minimum inhibitory concentration (50% Inhibition)) [µg/mL] | MIC = Minimum inhibitory concentration (50% Inhibition) ([4]; 48 hrs, 35° C.) [µg/mL] | MIC = Minimum inhibitory concentration (50% Inhibition) [1] [µg/mL] | MCC = Minimum cytolytic concentration [1] [µg/mL] | MCC = Minimum cytolytic concentration [2] [µg/mL] | MCC = Minimum cytolytic concentration [3] [µg/mL] | MCC = Minimum cytolytic concentration [4] [µg/mL] |
| --- | --- | --- | --- | --- | --- | --- | --- | --- | --- | --- | --- |
| OC(Cn1cncn1)(Cn1cncn1)c1ccc(F)cc1F [Fluconazole, reference compound] | 0.25 (≈ 0.816 µM) | 0.5 µg/mL (≈ 1.63 µM) | 1 (≈ 3.27 µM) | 0.5 (≈ 1.63 µM) | 0.5 (≈ 1.63 µM) | 1.0 (≈ 3.27 µM) | – | >64 | >64 | >64 | >64 |
| C=CCNCc1ccc(-c2csc(-c3ccc(F)cc3)n2)cc1 [Example 1n, 2-(4′-fluorophenyl)-4-[4″-(N-allylaminomethyl)phenyl]thiazole] | – | 8 µg/mL (≈ 24.7 µM) | – | 8 (≈ 24.7 µM) | – | 4 (≈ 12.3 µM) | 8 (≈ 24.7 µM) | 16 | 16 | 8 | 8 |
| CCCN(C)Cc1ccc(-c2csc(-c3ccc([N+](=O)[O-])cc3)n2)cc1 [Example 1o, 2-(4′-nitrophenyl)-4-[4″-(N-methyl-N-propylaminomethyl)phenyl]thiazole] | – | 1 µg/mL (≈ 2.72 µM) | – | 0.125 (≈ 0.34 µM) | – | 1 (≈ 2.72 µM) | 2 (≈ 5.44 µM) | 32 | 4 | 2 | 4 |
| C=CCN(C)Cc1ccc(-c2csc(-c3ccc(F)cc3)n2)cc1 [Example 1, 2-(4′-fluorophenyl)-4-[4″-(N-methyl-N-allylaminomethyl)phenyl]thiazole] | – | 4^c μg/ml | – | 4 (≈ 11.8 µM) | – | 4 (≈ 11.8 µM) | 4 (≈ 11.8 µM) | 16 | 16 | 16 | 16 |
| C=CCN(C)Cc1ccc(-c2csc(-c3ccc(OC)c([N+](=O)[O-])c3)n2)cc1 [Example 1kk, 2-(4′-methoxy-3′-nitrophenyl)-4-[4″-(N-methyl-N-allylamino-methyl)phenyl]thiazole] | – | 1 µg/mL (≈ 2.53 µM) | – | 0.5 (≈ 1.26 µM) | – | 0.25 (≈ 0.632 µM) | 1 (≈ 2.53 µM) | 2 | 2 | 2 | 1 |
| CN(C)Cc1ccc(-c2csc(-c3cccc([N+](=O)[O-])c3)n2)cc1 [Example 1aa, 2-(3′-nitrophenyl)-4-[4″-(dimethylaminomethyl)phenyl]-thiazole] | – | 4 µg/mL (≈ 11.8 µM) | – | 4 (≈ 11.8 µM) | – | 4 (≈ 11.8 µM) | 4 (≈ 11.8 µM) | 4 | 4 | 4 | 4 |
| CN(CCO)Cc1ccc(-c2csc(-c3ccc(Cl)cc3)n2)cc1 [Example 1ee, 2-(4′-chlorophenyl)-4-[4″-(N-methyl-N-(2-hydroxyethyl)aminomethyl)-phenyl]thiazole] | – | 4 µg/mL (≈ 11.1 µM) | – | 2 (≈ 5.57 µM) | – | 2 (≈ 5.57 µM) | 4 (≈ 11.1 µM) | 8 | 16 | 16 | 16 |
| CN(C)CCSCc1ccc(-c2csc(-c3ccc(Cl)cc3)n2)cc1 [Example 1rr, 2-(4′-chlorophenyl)-4-[4″-[(2-dimethylaminoethyl-thio)methyl]phenyl]thiazole] | – | 4 µg/mL (≈ 10.3 µM) | – | 4 (≈ 10.3 µM) | – | 4 (≈ 10.3 µM) | 4 (≈ 10.3 µM) | 8 | 8 | 8 | 8 |
